Test results reported in the METLIN SMRT retention time set (Domingo-Almenara et al. 2019).

Assay: gradient 5% acetonitrile 3 min, to 50% in 2 min, to 85% in 15 min, held 3 min, 100 µL/min
Conditions: column: Zorbax Extend-C18 2.1 x 50 mm; eluents: water / acetonitrile, 0.1% formic acid
How it was run: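 Retention times of pure standards were taken from adduct peaks that were selected by computer and manually inspected. Over 3 months, mixtures of ~100 molecules were run by HPLC–quadrupole time-of-flight mass spectrometry in positive and negative ionization mode. The Zorbax Extend-C18 column (2.1 × 50 mm, 1.8 μm) ran at 100 μL/min in water and acetonitrile, each containing 0.1% formic acid, with 40 μL dead volume and 900 μL dwell volume.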

| SMILES | RP-LC retention time [s] |
| --- | --- |
| Cc1ccc(CN2CCN(CC(=O)Nc3ccncc3)C(=O)C2=O)cc1 | 588 |
| CCn1c(=O)c(C)nc2cc(-c3noc(-c4ccc(N(C)C)cc4)n3)ccc21 | 1140 |
| Cn1c(N2CCCC(C(=O)NCc3cccs3)C2)cc(=O)n(C)c1=O (stereo not drawn) | 650 |
| CC(=O)c1ccc(NC(=O)CCn2nc(C)nc2C)cc1 | 557 |
| O=C(NCc1nnnn1C1CCCCC1)OCc1ccccc1 | 757 |
| COc1cc([C@@H]2c3cc4c(cc3[C@H](O)[C@@H](CO)[C@@H]2C(=O)N2CCN(c3ccccc3)CC2)OCO4)cc(OC)c1OC | 749 |
| COC(=O)c1c(C)[nH]c(C(=O)N2CCCC(C(=O)NCc3ccc(N(C)C)cc3)C2)c1C (stereo not drawn) | 597 |
| CCOc1ccc(S(=O)(=O)N2CCC(C(=O)N(CC)CC)CC2)cc1C | 934 |
| COC[C@@H]1CN(c2cnccn2)C[C@H]1C(=O)NCc1ccc(C)o1 | 636 |
| Cc1cc(NS(=O)(=O)c2c(C)noc2C)n(C2CCS(=O)(=O)C2)n1 (stereo not drawn) | 676 |
| CCn1nnc2c(SCC(=O)Nc3cccc(C(F)(F)F)c3)ncnc21 | 866 |
| CCOC(=O)c1cnc2nc(C)ccc2c1Nc1ccc(Cl)cc1 | 752 |
| CCCC(=O)N1CCC(C(=O)Nc2nnc(C)s2)CC1 | 590 |
| CCc1cc(C(=O)N2CCN(CC(C)C)CC2)nc2cc(-c3ccccn3)nn12 | 610 |
| CCn1c(=O)c(C)nc2cc(-c3noc(-c4ccc5c(c4)OCO5)n3)ccc21 | 1030 |
| Fc1ccc(-c2nnc(Cc3nc(-c4cccc(C(F)(F)F)c4)no3)o2)cc1 | 1110 |
| CN(C)C(=O)c1nc2ccccn2c1-c1ccsc1 | 595 |
| CC(C)c1nnc(-c2cccnc2N2CCN(C(=O)C3CCCO3)CC2)o1 (stereo not drawn) | 675 |
| CCOC(=O)CC1(NC(=O)N2CCN(c3nc4ccccc4n3C)CC2)CCCCC1 | 593 |
| O=C(NCc1ccc2c(c1)OCO2)C1CCCN(c2ncc(-c3cccc(F)c3)cn2)C1 (stereo not drawn) | 998 |

| SMILES | RP-LC retention time [s] |
| --- | --- |
| O=C(Cn1nc(C(=O)N2CCCC2)c2ccccc21)N1CCN(Cc2ccc3c(c2)OCO3)CC1 | 622 |
| Cc1ccc(C(=O)N2[C@H]3CC[C@@H]2c2cnc(-c4ccc(F)cc4)nc2C3)cn1 | 735 |
| CC(C)CCNC(=O)CN1C(=O)CCCc2cc(S(=O)(=O)N3CCC(C)CC3)ccc21 | 938 |
| CCCCC(=O)N1CCCC(C)C1 (stereo not drawn) | 878 |
| Cc1ccc(S(=O)(=O)N2CCC(n3cnc4c(C)cccc4c3=O)CC2)cc1F | 1030 |
| Cc1ccc(F)cc1NC(=O)c1cc(C(C)C)n2nccc2n1 | 1230 |
| Cc1ccc(-c2nc(NC(=O)c3cc(C)on3)sc2C)c(C)c1 | 1120 |
| CC(C)CN1C(=O)c2cccn2CC1C(=O)NCCCOC1CCN(C(C)C)CC1 (stereo not drawn) | 598 |
| Cc1ncc(-c2nc(-c3ccccc3)cs2)c(=O)n1CC(=O)N1CCCC1 | 827 |
| CN1CCCc2cc(C(CNC(=O)C(=O)NCCC3=CCCCC3)N3CCCC3)ccc21 (stereo not drawn) | 803 |
| O=C(C1CCN(c2nc3cccnc3s2)CC1)N1CCN(c2ccccn2)CC1 | 590 |
| CC1CCCN(CCCNC(=O)c2nnc(-c3ccc(S(=O)(=O)N4CCCC4)cc3)o2)C1 (stereo not drawn) | 642 |
| O=c1c2cnc3nc(-c4ccc(Cl)cc4)nn3c2ccn1CCCO | 714 |
| COc1cc(OC)cc(C(=O)N2CCC3(CC2)N=C(c2ccccc2)NO3)c1 | 810 |
| CCOc1ccc(S(=O)(=O)N2CCC(C(=O)NCCCO)CC2)cc1C | 707 |
| CCCC(=O)Nc1ccc(-n2cnc(C(=O)NC)c2)nc1 | 598 |
| Cc1ccc(NC(=O)C2CCN(S(=O)(=O)c3cc(-c4noc(C5CC5)n4)ccc3C)CC2)nc1 | 868 |
| Cc1cc2nc(-c3ccccn3)c(-c3ccccn3)nc2cc1C | 797 |
| O=C1NCCCCCCN(C(=O)c2cnccn2)[C@H]2CCCC[C@@H]12 | 684 |
| CC1CCN(CCNS(=O)(=O)c2ccccc2-c2nc(-c3ccc(F)cc3)no2)CC1 | 752 |

| SMILES | RP-LC retention time [s] |
| --- | --- |
| Cc1cc(C)cc(C(=O)N2CCN(c3nnc4ccccn34)CC2)c1 | 657 |
| Cc1nc(CNC(=O)C2CCN(C(=O)Nc3ccc(C)c(Cl)c3)CC2)cs1 | 714 |
| CCCc1ccc(S(=O)(=O)N2CCC3(CC2)CCC(O)(CN2CCCC2)CC3)cc1 | 735 |
| CC1CCN(CC[C@H]2CCCN2S(=O)(=O)c2cccc(O)c2)CC1 | 646 |
| Cc1cc2c(cc1NC(=O)c1ccco1)n(C)c(=O)c(=O)n2C | 614 |
| Cc1oc(-c2[nH]ncc2C(=O)N(C)C)cc1S(=O)(=O)Nc1ccc(F)cc1Cl | 696 |
| O=C(Nc1nc(CC(=O)N2CCCc3ccccc32)cs1)C1CC1 | 739 |
| CCC1Oc2ccc(S(=O)(=O)N3CCC(C(=O)N(C)c4cccc(C)c4)CC3)cc2NC1=O (stereo not drawn) | 872 |
| O=C(c1cccs1)N1CCC(c2nnc(-c3ccc(F)cc3)o2)CC1 | 733 |
| O=C1COc2ccc(-c3csc(NC(=O)c4ccc(F)cc4)n3)cc2N1 | 838 |
| O=C1CC(c2ccccc2)N(S(=O)(=O)c2cccc3nsnc23)CCCCCCN1 (stereo not drawn) | 886 |
| Cc1nnc2ccc(N3CCN(C(=O)COc4ccc5c(c4)OCO5)CC3)nn12 | 617 |
| Cc1ccc(NC(=O)C2CCN(S(=O)(=O)c3ccc4c(c3)NC(=O)C(C)O4)CC2)cc1 (stereo not drawn) | 817 |
| COC(=O)c1ncn2c1C(=O)N(Cc1ccc(Cl)cc1)C(C)(C(=O)NC1CCCC1)C2 (stereo not drawn) | 758 |
| COCCCNc1nccc(-n2nc(C)cc2C)n1 | 631 |
| CCN1CCC2(CC1)OC(=O)C(C)=C2C(=O)NCc1ccc(C)cc1 | 558 |
| CCCNC(=O)C1CCN(c2ccc(SCC(=O)Nc3ccc(C(F)(F)F)cc3)nn2)CC1 | 728 |
| CCOC(=O)c1c(C)[nH]c(C(=O)N2CCC(C(C)C(=O)NCc3ccc(OCC)cc3)CC2)c1C (stereo not drawn) | 860 |
| Cc1ccc(NC(=O)C2(CCO)CCN(c3ncccn3)C2)cc1 (stereo not drawn) | 630 |

Now from value to molecule:

| RP-LC retention time [s] | SMILES |
| --- | --- |
| 822 | NC(=O)C1=C(N)c2ccccc2C1c1ccccc1 (stereo not drawn) |
| 1080 | CCOc1cccc(-c2noc(Cc3nnc(-c4cccc(OC)c4)o3)n2)c1 |
| 1160 | COc1ccc(OCc2nc(Cc3nc(-c4cccc(C)c4)oc3C)no2)cc1 |
| 613 | COc1ccc(OC)c(C(C)NC(=O)CCc2ccc3nc[nH]c3c2)c1 (stereo not drawn) |
| 1070 | Cc1oc2ccn(Cc3ccccc3F)c(=O)c2c1C(=O)NCc1ccccc1 |
| 826 | O=C1CN(C(=O)COc2ccccc2)C(c2ccccc2)c2cc(F)ccc2N1 (stereo not drawn) |
| 651 | CCn1cc(CCNC(=O)Cc2cccs2)c2cccnc21 |
| 681 | COc1ccc(CNc2nc3ccncc3n(C(C)C)c2=O)c(OC)c1 |
| 718 | COC(=O)Cn1c(C2CC(=O)N(c3cccc(OC)c3)C2)nc2ccccc21 (stereo not drawn) |
| 975 | COc1cccc(CNC(=O)Cn2cnc3c(sc4nc(-c5ccccc5)ccc43)c2=O)c1 |
| 1030 | COc1cc(OC)c(NC(=O)c2cc3c(=O)oc4ccccc4c3n2C)cc1Cl |
| 949 | COc1ccc(C(O)Cn2ccn3nc(-c4cc(C)ccc4C)cc3c2=O)cc1 (stereo not drawn) |
| 1200 | COc1cccc(-n2c(=O)c(C(=O)NCCc3ccccc3)c(O)c3cccnc32)c1 |
| 971 | COc1ccc(N2CC(c3noc(-c4ccc(Cl)cc4OC)n3)CC2=O)cc1 (stereo not drawn) |
| 998 | C#CCSc1nc2ccccc2c2nc(-c3cccnc3)nn12 |
| 873 | CCc1cccc(C)c1Nc1c(-c2ccc(OC)cc2)nc2cnccn12 |
| 634 | O=C(c1cc(=O)n2c(nc3ccccc32)s1)N1CCN(c2ccccn2)CC1 |
| 1150 | Cc1ccc(Sc2nccnc2N2CCCC(C(=O)NCc3ccccc3C)C2)cc1 (stereo not drawn) |
| 983 | COC(=O)c1ccccc1OCc1cc(=O)oc2ccc(C)cc12 |
| 978 | CCOC(=O)c1ccc(Nc2c(-c3cccc(Cl)c3)nc3cnccn23)cc1 |
| 1040 | O=C(Cn1cccc(-c2nc(-c3ccccc3)no2)c1=O)Nc1cc(C(F)(F)F)ccc1Cl |
| 1050 | CC(C)Cn1c(=O)c(C(=O)NCc2ccc(C(F)(F)F)cc2)nc2cccnc21 |
| 588 | COc1ccc(OC)c(S(=O)(=O)NCCN2CCN(c3ccccc3F)CC2)c1 |
| 760 | O=C(NCc1cccc(C(F)(F)F)c1)c1c[nH]c2ncccc12 |
| 937 | O=C(Cn1c(=O)cc(-c2nc(C3CC3)no2)c2ccccc21)Nc1ccccc1 |
| 738 | O=C(NCc1ccccc1)N1CCN(c2ncccc2-c2nnc(C3CC3)o2)CC1 |
| 773 | CCOc1ccc(NS(=O)(=O)c2cc(-c3c(C)noc3NC(C)=O)ccc2OC)cc1 |
| 940 | CCOc1ccc(NC2=NS(=O)(=O)C(c3ccc(OC)cc3)=C2C)cc1 |
| 950 | O=C(Cn1cccc(-c2nc(-c3ccc(F)cc3)no2)c1=O)Nc1ccc(Cl)cc1 |
